According to ChEMBL document CHEMBL4196244, “Matrine-Type Alkaloids from the Roots of Sophora flavescens and Their Antiviral Activities against the Hepatitis B Virus” (J Nat Prod, 2018):
The source made the active and inactive calls. The calls are words filed in the database; no cut-off is given here.

How the values were obtained:
Hepatitis B virus [1] = assay: Antiviral activity against HBV infected in human HepG2.2.15 cells assessed as inhibition of HBsAg secretion at 0.2 mM supplemented with fresh medium containing compound every 3 days for 9 days measured after 9 days by ELISA relative to control; format: functional
Hepatitis B virus [2] = assay: Antiviral activity against HBV infected in human HepG2.2.15 cells assessed as inhibition of HBeAg secretion at 0.2 mM supplemented with fresh medium containing compound every 3 days for 9 days measured after 9 days by ELISA relative to control; format: functional
[3] = Cytotoxicity against human HepG2.2.15 cells assessed as growth inhibition at 0.4 mM by MTT assay relative to control; format: cell-based, HepG2 2.2.15; conditions: read-out: GI
Hepatitis B virus [4] = assay: Antiviral activity against HBV infected in human HepG2.2.15 cells assessed as inhibition of HBsAg secretion at 0.4 mM supplemented with fresh medium containing compound every 3 days for 9 days measured after 9 days by ELISA relative to control; format: functional
Hepatitis B virus [5] = assay: Antiviral activity against HBV infected in human HepG2.2.15 cells assessed as inhibition of HBeAg secretion at 0.4 mM supplemented with fresh medium containing compound every 3 days for 9 days measured after 9 days by ELISA relative to control; format: functional
[6] = Cytotoxicity against human HepG2.2.15 cells assessed as growth inhibition at 0.8 mM by MTT assay relative to control; format: cell-based, HepG2 2.2.15; conditions: read-out: GI
Hepatitis B virus [7] = assay: Antiviral activity against HBV infected in human HepG2.2.15 cells assessed as inhibition of HBsAg secretion at 1 mM supplemented with fresh medium containing compound every 3 days for 9 days measured after 9 days by ELISA relative to control; format: functional
Hepatitis B virus [8] = assay: Antiviral activity against HBV infected in human HepG2.2.15 cells assessed as inhibition of HBeAg secretion at 1 mM supplemented with fresh medium containing compound every 3 days for 9 days measured after 9 days by ELISA relative to control; format: functional
[9] = Cytotoxicity against human HepG2.2.15 cells assessed as growth inhibition at 1 mM by MTT assay relative to control; format: cell-based, HepG2 2.2.15; conditions: read-out: GI
Hepatitis B virus [10] = assay: Antiviral activity against HBV infected in human HepG2.2.15 cells assessed as inhibition of HBeAg secretion at 0.8 mM supplemented with fresh medium containing compound every 3 days for 9 days measured after 9 days by ELISA relative to control; format: functional
Hepatitis B virus [11] = assay: Antiviral activity against HBV infected in human HepG2.2.15 cells assessed as inhibition of HBsAg secretion at 0.8 mM supplemented with fresh medium containing compound every 3 days for 9 days measured after 9 days by ELISA relative to control; format: functional

SMILES | inhibition (INH) (Hepatitis B virus [4]) | inhibition (INH) (Hepatitis B virus [5]) | inhibition at 800 µM [6] | further results
O=C(CCCc1ncc2c3c1CCCN3CCC2)N1CCCCC1 |  |  |  | inhibition (INH) (Hepatitis B virus [1]): 44.3%; inhibition (INH) (Hepatitis B virus [2]): 38%; inhibition at 400 µM [3]: ≥ 25%
O=C1CCCC2=C3CCCN4CCC[C@@H](CN12)[C@@H]34 | 22.4% | 29.9% | ≥ 25% | 
O=C1CCC[C@@H]2[C@H]3CCCN4CCC[C@@H](CN12)[C@@H]34 [MATRINE] | 34.7% | 16.8% | ≥ 25% | 
O=C(O)CCCC1=NCC2CCCN3CCCC1=C23 (racemic) | 29.8% | 15.1% | ≥ 25% | 
Nc1ccn([C@@H]2CS[C@H](CO)O2)c(=O)n1 [LAMIVUDINE] |  |  |  | inhibition (INH) (Hepatitis B virus [7]): 31.5 - 32.6%; inhibition (INH) (Hepatitis B virus [8]): 37.5%
O=C1CCC[C@@H]2[C@H]3CCCN4CCC[C@H](CN12)[C@@H]34 [SOPHORIDINE] | 40.2% | 21.9% | ≥ 25% | 
O=C(O)CCC[C@@H]1N=CC2=C3[C@H]1CCCN3CCC2 | 30.8% | 16.8% | ≥ 25% | 
O=C1[C@@H](O)CC[C@@H]2[C@H]3CCCN4CCC[C@@H](CN12)[C@@H]34 | 33.2% | 18.5% | ≥ 25% | 
O=C(O)CCCc1ncc2c3c1CCCN3CCC2 | 37.2% | 33.2% | ≥ 25% | 
O=C1CCCN2CCC[C@](O)(CN3C(=O)CCC[C@H]13)C2=O | 14.1% |  | ≥ 25% | inhibition (Hepatitis B virus [5]): inactive
O=C1CCCN2CCC[C@](O)(C2=O)[C@H]2CCCC(=O)N2C1 | 46% | 40.4% | ≥ 25% | 
O=C1CCC[C@@H]2[C@H]3CCCN4CCC[C@H](CN12)[C@H]34 | 13.8% |  | ≥ 25% | inhibition (Hepatitis B virus [5]): inactive
O=C1CCC[C@@H]2[C@H]3CCC[N+]4([O-])CCC[C@@H](CN12)[C@@H]34 (stereo partly specified) [OXYMATRINE] | 38.3% | 20.3% | ≥ 25% | 
O=C1CCC[C@@H]2[C@H]3CCCN4CCC[C@@](O)(CN12)[C@@H]34 |  |  |  | inhibition (INH) (Hepatitis B virus [1]): 33.8%; inhibition (INH) (Hepatitis B virus [2]): 28.4%; inhibition at 400 µM [3]: ≥ 25%
O=C1CC[C@H]2C3=C(CCCN13)CN1C(=O)CCC[C@H]21 |  |  |  | inhibition (INH) (Hepatitis B virus [1]): 33%; inhibition (INH) (Hepatitis B virus [2]): 38.8%; inhibition at 400 µM [3]: ≥ 25%
O=C1CC[C@H]2[C@@H]3[C@H](CCCN13)CN1C(=O)CCC[C@H]21 | 32.5% | 18.3% | ≥ 25% | 
O=C1CCCC2=C3CCC[N+]4([O-])CCC[C@@H](CN12)[C@@H]34 (stereo partly specified) |  |  |  | inhibition at 1000 µM [9]: ≥ 25%; inhibition (INH) (Hepatitis B virus [10]): 22.6%; inhibition (INH) (Hepatitis B virus [11]): 25.4%
O=c1cccc2n1C[C@@H]1CCCN3CCC[C@H]2[C@H]13 |  |  |  | inhibition at 1000 µM [9]: ≥ 25%; inhibition (INH) (Hepatitis B virus [10]): 13.5%; inhibition (INH) (Hepatitis B virus [11]): 29.5%
O=C1CCC[C@@H]2[C@H]3CCCN4CCC[C@@H](CN12)[C@H]34 | 26.3% | 17.7% | ≥ 25% | 
